pEC50, pKi: −log10 of the molar value.
Tests used:
[1] = target: T1, human β2 adrenergic receptor (Homo sapiens, UniProt P07550); test: Radioligand binding assay for human β2 adrenergic receptor (Assay Test Procedure A); set-up: expressed in transfected cells; host or cells: CHO-K1 cells; conditions: CHO cell membranes, [3H]-dihydroalprenolol displacement
Procedure: Chinese hamster ovarian (CHO) cell lines stably expressing cloned human β1, β2 or β3 adrenergic receptors, respectively, were grown to near confluency in Hams F-12 media with 10% FBS in the presence of 500 μg/mL Geneticin. The cell monolayer was lifted with 2 mM EDTA in PBS. Cells were pelleted by centrifugation at 1,000 rpm, and cell pellets were either stored frozen at −80° C. or membranes were prepared immediately for use. For preparation of β1 and β2 receptor expressing membranes, cell pellets were re-suspended in lysis buffer (10 mM HEPES/HCl, 10 mM EDTA, pH 7.4 at 4° C.) and homogenized using a tight-fitting Dounce glass homogenizer (30 strokes) on ice. […] The protein concentration of the membrane suspension was determined by the methods described in Lowry et al., 1951, Journal of Biological Chemistry, 193, 265; and Bradford, Analytical Biochemistry, 1976, 72, 248-54. […]
Binding assays were performed in 96-well microtiter plates in a total assay volume of 100 μL with 10-15 μg of membrane protein containing the human β1, β2 or β3 adrenergic receptors in assay buffer (75 mM Tris/HCl pH 7.4 at 25° C., 12.5 mM MgCl2, 1 mM EDTA, 0.2% BSA). […] Non-specific binding was determined in the presence of 10 μM propranolol. […] Filter plates were washed three times with filtration buffer (75 mM Tris/HCl pH 7.4 at 4° C., 12.5 mM MgCl2, 1 mM EDTA) to remove unbound radioactivity. […]

[2] = target: T1, human β2 adrenergic receptor; test: Whole-cell cAMP Flashplate assay in CHO cell lines heterologously expressing human β2 adrenergic receptor (Assay Test Procedure C); format: cell-based; set-up: expressed in transfected cells; host or cells: CHO-K1 cells; conditions: CHO-K1 cells
Procedure: cAMP assays were performed in a radioimmunoassay format using the Flashplate Adenylyl Cyclase Activation Assay System with [^125I]-cAMP (NEN SMP004, PerkinElmer Life Sciences Inc., Boston, Mass.), according to the manufacturers instructions. For the determination of P receptor agonist potency (EC50), CHO-K1 cell lines stably expressing cloned human β1, β2 or β3 adrenergic receptors were grown to near confluency in HAM's F-12 media supplemented with 10% FBS and Geneticin (250 μg/mL). Cells were rinsed with PBS and detached in dPBS (Dulbecco's Phosphate Buffered Saline, without CaCl2 and MgCl2) containing 2 mM EDTA or Trypsin-EDTA solution (0.05% trypsin/0.53 mM EDTA). After counting cells in Coulter cell counter, cells were pelleted by centrifugation at 1,000 rpm and re-suspended in stimulation buffer containing IBMX (PerkinElmer Kit) pre-warmed to room temperature to a concentration of 1.6×10^6 to 2.8×10^6 cells/mL. About 60,000 to 80,000 cells per well were used in this assay. Test compounds (10 mM in DMSO) were diluted into PBS containing 0.1% BSA in Beckman Biomek-2000 and tested at 11 different concentrations ranging from 100 μM to 1 pM. Reactions were incubated for 10 min at 37° C. and stopped by adding 100 μL of cold detection buffer containing [^125I]-cAMP (NEN SMP004, PerkinElmer Life Sciences, Boston, Mass.). The amount of cAMP produced (pmol/well) was calculated based on the counts observed for the samples and cAMP standards as described in the manufacturer's user manual. Data were analyzed by nonlinear regression analysis with the GraphPad Prism Software package (GraphPad Software, Inc., San Diego, Calif.) with the sigmoidal equation. The Cheng-Prusoff equation (Cheng Y, and Prusoff W H., Biochemical Pharmacology, 1973, 22, 23, 3099-108) was used to calculate the […].

[3] = target: T2, hM3 muscarinic receptor (Homo sapiens, UniProt P20309); test: Radioligand binding assay for muscarinic receptors (Assay Test Procedure B); conditions: CHO cell membranes, [3H]-NMS displacement; read-out: Ki value for the M3 muscarinic receptor
T2 construct: expressed in transfected cells; host or cells: CHO cells (membranes)
Procedure: CHO cell lines stably expressing cloned human hM1, hM2, hM3 and hM4 muscarinic receptor subtypes, respectively, were grown to near confluency in HAM's F-12 media supplemented with 10% FBS and 250 μg/mL Geneticin. The cells were grown in a 5% CO2, 37° C. incubator and lifted with 2 mM EDTA in dPBS. Cells were collected by 5 minute centrifugation at 650×g, and cell pellets were either stored frozen at −80° C. or membranes were prepared immediately for use. For membrane preparation, cell pellets were resuspended in lysis buffer and homogenized with a Polytron PT-2100 tissue disrupter (Kinematica AG; 20 seconds×2 bursts). Crude membranes were centrifuged at 40,000×g for 15 minutes at 4° C. The membrane pellet was then resuspended with re-suspension buffer and homogenized again with the Polytron tissue disrupter. The protein concentration of the membrane suspension was determined by the method described in Lowry et al., 1951, […], 193, 265. All membranes were stored frozen in aliquots at −80° C. or used immediately. Aliquots of prepared hM5 receptor membranes were purchased directly from Perkin Elmer and stored at −80° C. until use.
Radioligand binding assays for cloned human muscarinic receptors were performed in 96-well microtiter plates in a total assay volume of 100 μL. […] Filter plates were rinsed three times with wash buffer (10 mM HEPES) to remove unbound radioactivity. […] The plates were then counted in a PerkinElmer Topcount liquid scintillation counter (PerkinElmer Inc., Wellesley, Mass.). Binding data were analyzed by nonlinear regression analysis with the GraphPad Prism Software package (GraphPad Software, Inc., San Diego, Calif.) using the one-site competition model. Ki values for test compounds were calculated from observed IC50 values and the KD value of the radioligand using the Cheng-Prusoff equation (Cheng Y; Prusoff W H. (1973) Biochemical Pharmacology, 22(23):3099-108). […]

[4] = target: T1, human β2 adrenergic receptor; test: Whole-cell cAMP Flashplate assay with lung epithelial cell line BEAS-2B endogenously expressing human β2 adrenergic receptor (Assay Test Procedure E); format: cell-based; conditions: BEAS-2B cells
Procedure: For the determination of agonist potencies and efficacies (intrinsic activities) in a cell line expressing endogenous levels of the β2 adrenergic receptor, a human lung epithelial cell line (BEAS-2B) was used (ATCC CRL-9609, American Type Culture Collection, Manassas, Va.) (January B, et al., British Journal of Pharmacology, 1998, 123, 4, 701-11). Cells were grown to 75-90% confluency in complete, serum-free medium (LHC-9 MEDIUM containing Epinephrine and Retinoic Acid, cat # 181-500, Biosource International, Camarillo, Calif.). The day before the assay, medium was switched to LHC-8 (no epinephrine or retinoic acid, cat # 141-500, Biosource International, Camarillo, Calif.). cAMP assays were performed in a radioimmunoassay format using the Flashplate Adenylyl Cyclase Activation Assay System with [^125I]-cAMP (NEN SMP004, PerkinElmer Life Sciences Inc., Boston, Mass.), according to the manufacturers instructions. On the day of the assay, cells were rinsed with PBS, lifted by scraping with 5 mM EDTA in PBS, and counted. Cells were pelleted by centrifugation at 1,000 rpm and re-suspended in stimulation buffer pre-warmed to 37° C. at a final concentration of 600,000 cells/mL. Cells were used at a final concentration of 100,000 to 120,000 cells/well in this assay. […] Plates were sealed, incubated over night at 4° C. and counted the next morning in a Topcount scintillation counter (Packard BioScience Co., Meriden, Conn.). The amount of cAMP produced per mL of reaction was calculated based on the counts observed for samples and cAMP standards, as described in the manufacturer's user manual. Data were analyzed by nonlinear regression analysis with the GraphPad Prism Software package (GraphPad Software, Inc., San Diego, Calif.) using the 4-parameter model for sigmoidal dose-response.
if desired, test compound efficacity (% Eff) was calculated from the ratio of the observed Emax (TOP of the fitted curve) and the maximal response obtained for isoproterenol dose response curve and was expressed as % Eff relative to isoproterenol.

T2 sequence (P20309 whole entry): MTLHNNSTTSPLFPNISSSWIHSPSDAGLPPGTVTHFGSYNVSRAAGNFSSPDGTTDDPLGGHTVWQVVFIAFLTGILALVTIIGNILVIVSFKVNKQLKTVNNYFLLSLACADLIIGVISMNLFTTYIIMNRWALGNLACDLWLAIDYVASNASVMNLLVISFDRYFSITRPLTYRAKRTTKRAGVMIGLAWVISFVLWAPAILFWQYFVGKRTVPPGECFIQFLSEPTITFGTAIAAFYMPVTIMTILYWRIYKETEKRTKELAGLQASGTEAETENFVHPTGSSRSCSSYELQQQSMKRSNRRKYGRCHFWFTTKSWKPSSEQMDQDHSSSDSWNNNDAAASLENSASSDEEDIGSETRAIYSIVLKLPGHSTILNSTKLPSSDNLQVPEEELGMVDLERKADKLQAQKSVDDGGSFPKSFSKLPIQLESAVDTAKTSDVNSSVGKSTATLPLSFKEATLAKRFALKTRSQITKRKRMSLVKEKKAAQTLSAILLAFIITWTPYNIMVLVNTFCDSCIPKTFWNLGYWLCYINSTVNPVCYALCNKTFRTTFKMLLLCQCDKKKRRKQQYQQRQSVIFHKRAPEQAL
T1 sequence (P07550 whole entry): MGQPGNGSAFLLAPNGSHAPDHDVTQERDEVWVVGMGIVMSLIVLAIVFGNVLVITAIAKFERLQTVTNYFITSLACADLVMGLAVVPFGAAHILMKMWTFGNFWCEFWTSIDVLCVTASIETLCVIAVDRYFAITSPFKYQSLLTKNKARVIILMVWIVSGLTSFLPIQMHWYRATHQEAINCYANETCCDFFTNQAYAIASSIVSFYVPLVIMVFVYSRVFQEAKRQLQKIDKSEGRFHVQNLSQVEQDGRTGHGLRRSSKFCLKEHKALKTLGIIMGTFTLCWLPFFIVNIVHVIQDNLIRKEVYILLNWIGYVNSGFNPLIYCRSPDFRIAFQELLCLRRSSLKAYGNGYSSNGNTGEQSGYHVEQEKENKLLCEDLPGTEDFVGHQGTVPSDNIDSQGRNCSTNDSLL

Structure (SMILES)	pKi [1]	pEC50 [2]	pKi [3]	pEC50 [4]
O=C(Nc1ccccc1-c1ccsc1)OC1CCN(CCCCCCCCCNC[C@H](O)c2ccc(O)c3[nH]c(=O)ccc23)CC1 [Example 2, (2-Thien-3-ylphenyl)carbamic Acid 1-{9-[(R)-2-Hydroxy-2-(8-hydroxy-2-oxo-1,2-dihydroquinolin-5-yl)ethylamino]nonyl}piperidin-4-yl Ester]	> 8.00	> 8.00	> 8.00	> 7.70
O=C(Nc1ccccc1-c1cccs1)OC1CCN(CCCCCCCCCNC[C@H](O)c2ccc(O)c3[nH]c(=O)ccc23)CC1 [Example 1, (2-Thien-2-ylphenyl)carbamic Acid 1-{9-[(R)-2-Hydroxy-2-(8-hydroxy-2-oxo-1,2-dihydroquinolin-5-yl)ethylamino]nonyl}piperidin-4-yl Ester]	> 8.00	> 8.00	> 8.00	> 7.70
O=C(Nc1c(F)cc(F)cc1-c1cccnc1)OC1CCN(CCCCCCCCCNC[C@H](O)c2ccc(O)c3[nH]c(=O)ccc23)CC1 [Example 3, (2,4-Difluoro-6-pyridin-3-ylphenyl)carbamic Acid 1-{9-[(R)-2-Hydroxy-2-(8-hydroxy-2-oxo-1,2-dihydroquinolin-5-yl)ethylamino]nonyl}piperidin-4-yl Ester]	–	> 8.00	> 6.82	> 7.70

From US7569586B2, “Compounds having β2 adrenergic receptor agonist and muscarinic receptor antagonist activity” (Theravance, Inc., priority 2004, dated 2009)
